Consider one molecule from doi:10.1101/2020.06.23.167346v1 (biorxiv, 2020).

For orientation: IC50 means the concentration that gives 50% inhibition.

SMILES strings stand for the structures.

This experiment has as its target T1, TcAK (T. cruzi arginine kinase) (Trypanosoma cruzi, UniProt O96507).
T1 sequence (O96507 1-357): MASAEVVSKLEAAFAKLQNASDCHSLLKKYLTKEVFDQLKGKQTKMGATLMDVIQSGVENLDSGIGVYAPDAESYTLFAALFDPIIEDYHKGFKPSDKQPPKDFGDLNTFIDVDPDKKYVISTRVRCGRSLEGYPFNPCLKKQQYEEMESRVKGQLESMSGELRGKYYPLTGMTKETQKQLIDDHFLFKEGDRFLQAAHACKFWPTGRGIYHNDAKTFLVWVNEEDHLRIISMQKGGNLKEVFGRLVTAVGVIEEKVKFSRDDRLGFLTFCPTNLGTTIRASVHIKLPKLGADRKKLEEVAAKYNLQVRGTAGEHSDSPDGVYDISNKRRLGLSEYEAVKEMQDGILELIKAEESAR
The experiment can be described thus: coupled pyruvate kinase / lactate dehydrogenase assay, NADH absorbance at […] nm. The experiment is classed as biochemical.

Molecule `COc1cc(CNC(=O)CCCC/C=C/C(C)C)ccc1O` [capsaicin, (E)-N-(4-hydroxy-3-methoxybenzyl)-8-methyl-6-nonenamide] had an IC50 of around 800 µM.
